# Laboratory results from the supplement of paper PMC10307832.
# Tests used:
# Assay in all cases: relative viability (nuclei count vs DMSO), 5 days (fraction); higher = more cells survive
# AT-7519 + Tozasertib = compound: O=C(NC1CCNCC1)c1n[nH]cc1NC(=O)c1c(Cl)cccc1Cl [AT-7519] + Cc1cc(Nc2cc(N3CCN(C)CC3)nc(Sc3ccc(NC(=O)C4CC4)cc3)n2)n[nH]1 [Tozasertib] (partner 0.1 µM)
# In short: (§1)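 Nuclei were stained with Hoechst during a one-step fixation (final 0.05% Triton X-100, 1% formaldehyde, 1 ug/ml Hoechst) carried out 5 days after dosing, then counted on 4× images. The cells, lung cancer lines in 1536-well plates, had been dosed by pin tool the day after seeding with one drug alone or a fixed anchor-drug dose plus five library-drug doses (not always all listed) in √10 steps. Relative viability is the nuclei count in treated wells divided by that in vehicle wells, and each value is the median of duplicate plates.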
# [1] = compound: C1=CC2=C(C=C(C(=C2N=C1)O)N=NC3=CC4=C(C=C3)C=C(C=C4)S(=O)(=O)O)S(=O)(=O)O + C[C@@H](Oc1cc(-c2cnn(C3CCNCC3)c2)cnc1N)c1c(Cl)ccc(F)c1Cl [Crizotinib] (partner 1 µM)
# In short: as §1
# AT-7519 + Vorinostat = compound: O=C(NC1CCNCC1)c1n[nH]cc1NC(=O)c1c(Cl)cccc1Cl [AT-7519] + O=C(CCCCCCC(=O)Nc1ccccc1)NO [Vorinostat] (partner 1 µM)
# In short: as §1
# [2] = compound: C1=CC2=C(C=C(C(=C2N=C1)O)N=NC3=CC4=C(C=C3)C=C(C=C4)S(=O)(=O)O)S(=O)(=O)O + Nc1ncn([C@H]2C[C@H](O)[C@@H](CO)O2)c(=O)n1 [Decitabine] (partner 2 µM)
# In short: as §1
cell line,measurement,setting,value
NCI-H2009,relative viability,AT-7519 + Tozasertib; first compound 0.01 µM,0.751
same,relative viability,AT-7519 + Tozasertib; first compound 0.03162 µM,0.72
same,relative viability,AT-7519 + Tozasertib; first compound 0.3162 µM,0.703
same,relative viability,AT-7519 + Tozasertib; first compound 1 µM,0.515
same,relative viability,[1]; first compound 0.08 µM,1.14
same,relative viability,[1]; first compound 0.253 µM,1.04
same,relative viability,[1]; first compound 0.8 µM,1.09
same,relative viability,[1]; first compound 2.53 µM,1.07
same,relative viability,[1]; first compound 8 µM,1.02
same,relative viability,AT-7519 + Vorinostat; first compound 0.01 µM,0.782
same,relative viability,AT-7519 + Vorinostat; first compound 0.03162 µM,0.725
same,relative viability,AT-7519 + Vorinostat; first compound 0.3162 µM,0.81
same,relative viability,AT-7519 + Vorinostat; first compound 1 µM,0.746
same,relative viability,[2]; first compound 0.08 µM,0.351
same,relative viability,[2]; first compound 0.253 µM,0.327
same,relative viability,[2]; first compound 0.8 µM,0.358
same,relative viability,[2]; first compound 2.53 µM,0.373
same,relative viability,[2]; first compound 8 µM,0.297
